This is an account of results in patent US10369123B2, “Perk activator for the treatment of neurodegenerative diseases” (DEUTSCHES ZENTRUM FÜR NEURODEGENERATIVE ERKRANKUNGEN E.V. …, priority 2014, dated 2019).

Test [1] addresses T1, PERK (Homo sapiens, UniProt Q9NZJ5).
T1 sequence (Q9NZJ5 30-1116): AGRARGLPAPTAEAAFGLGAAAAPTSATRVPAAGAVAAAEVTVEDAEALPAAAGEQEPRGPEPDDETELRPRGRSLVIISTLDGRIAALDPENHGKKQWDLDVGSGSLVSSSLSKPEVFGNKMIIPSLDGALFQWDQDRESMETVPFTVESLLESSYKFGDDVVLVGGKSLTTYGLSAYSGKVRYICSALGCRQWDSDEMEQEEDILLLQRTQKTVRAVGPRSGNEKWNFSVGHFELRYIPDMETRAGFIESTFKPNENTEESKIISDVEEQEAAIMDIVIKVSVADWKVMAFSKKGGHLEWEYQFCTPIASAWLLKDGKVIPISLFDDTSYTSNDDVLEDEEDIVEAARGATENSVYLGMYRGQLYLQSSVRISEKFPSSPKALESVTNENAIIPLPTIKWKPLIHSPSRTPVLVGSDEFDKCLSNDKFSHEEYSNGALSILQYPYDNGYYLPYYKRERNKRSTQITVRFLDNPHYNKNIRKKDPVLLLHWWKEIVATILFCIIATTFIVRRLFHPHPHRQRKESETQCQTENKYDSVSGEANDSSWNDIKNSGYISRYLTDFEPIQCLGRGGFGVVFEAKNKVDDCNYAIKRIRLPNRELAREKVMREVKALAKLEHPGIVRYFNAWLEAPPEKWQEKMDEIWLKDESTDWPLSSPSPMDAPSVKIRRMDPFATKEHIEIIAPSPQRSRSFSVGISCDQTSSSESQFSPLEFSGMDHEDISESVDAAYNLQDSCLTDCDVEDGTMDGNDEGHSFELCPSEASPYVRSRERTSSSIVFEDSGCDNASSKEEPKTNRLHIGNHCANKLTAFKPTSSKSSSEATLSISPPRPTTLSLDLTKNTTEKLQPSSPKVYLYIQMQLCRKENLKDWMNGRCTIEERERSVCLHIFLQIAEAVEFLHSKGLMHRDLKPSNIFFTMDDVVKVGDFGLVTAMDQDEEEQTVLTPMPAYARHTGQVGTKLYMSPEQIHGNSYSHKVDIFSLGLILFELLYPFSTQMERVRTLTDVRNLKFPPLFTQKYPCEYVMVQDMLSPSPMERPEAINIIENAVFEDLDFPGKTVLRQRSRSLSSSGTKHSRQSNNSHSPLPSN
Conditions: Stockwell et al. 2012; cited from earlier work.

In test [2] the test system is tau. Nature of the test: Western blot of tau phosphorylation, 4R-tau overexpression model. Conditions: 4R-tau overexpressing lentivirus 8 days + PERK activator. In kind it is cell-based, human. The procedure:
Nunc™ Nunclon™ Delta 6-well (for protein and mRNA) or 48-well (for cell assays) plates (Thermo Fisher Scientific, Waltham, Mass., USA) were coated with 100 μg/ml poly-L-lysine (Sigma-Aldrich, St. Louis, Mo., USA) and 5 μg/ml fibronectin (Sigma-Aldrich). LUHMES (Lund Human Mesencephalic) cells, derived from human embryonic ventral mesencephalic cells by conditional immortalization (Tet-off v-myc over-expression) were seeded out in a concentration of 130,000 cells/cm^2 to achieve a confluence of 50%. They were then differentiated for 8 days in a medium of DMEM/F12 (Sigma-Aldrich), 1 μg/ml tetracycline, […] and 490 μg/ml dbcAMP into post-mitotic neurons with a dopaminergic phenotype (Lotharius et al. 2005).
For all experiments with annonacin, the medium was replaced during the intoxication period with new medium containing glucose levels reduced to 250 μM, i.e. the physiological concentration in the human brain.
Concentrated lentiviral particles were titrated by transducing LUHMES cells with different dilutions at 6 hours after initiating differentiation. The lowest dilution at which at least 90% of cells expressed the transgene (as determined by immunohistochemistry of the cells fixed on day 2 post differentiation) was chosen for subsequent experiments. For these, concentrated lentiviral particles were again added into the medium on day 0, 6 hours after initiating differentiation.
Protein was extracted by scraping the cells from the culture plate with Mammalian Protein Extraction Reagent (M-PER, Thermo Fisher Scientific) and 1× cOmplete Protease Inhibitor Cocktail Tablets (Hoffmann-La Roche, Basel, Switzerland) and 1× PhosSTOP Phosphatase Inhibitor Cocktail Tablets (Hoffmann-La Roche). For pNRF2 blots, cells were extracted with 2% SDS tris-buffer instead of M-PER in order to obtain whole cell extracts and not to lose the nuclear fraction. […] Protein concentrations were determined using the BCA kit (Thermo Fisher Scientific) by heating the samples at 60° C. for 30 min and measuring the absorption on the NanoDrop 2000c Spectrophotometer (Thermo Fisher Scientific). […]

On to `CCN(CC)CCC(=O)N1N=C(c2c(-c3ccccc3)c3cc(Br)ccc3[nH]c2=O)CC1c1ccc(Br)cc1` (centres unmarked) [CCT020312, 6-bromo-3-[5-(4-bromo-phenyl)-1-(3-diethylamino-propionyl)-4,5-dihydro-1H-pyrazol-3-yl]-4-phenyl-1H-quinolin-2-one], for which, in test [1], the EIF2A phosphorylation result was “increase” and the “other arms of the UPR” value is listed as “remained unaffected”. Besides, in test [2], the AD2-positive tau result is “not altered”, the “CP13 (Ser-202) phosphorylated tau” value was “significantly reduced” and the HT7-positive tau result is on record as “not altered”.
